From PubChem BioAssay AID2060498 (Molecular Pharmacology Branch, DTP, NCI, 2025)

System: 171881-019-R-J1-PDC tumor spheroids, viability
Assay: Anticancer human tumor 171881-019-R-J1-PDC patient-derived invasive breast carcinoma cell line growth inhibition [GQUAD]
Conditions: spheroids with HUVEC and MSC; for IC50: curve of first compound; for viability, T/C: stronger effect = lower value; active = viability on the fitted dose curve at most 10% of control; inactive = the rest
Method in brief: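 Viability of tumor cells grown as complex spheroids with endothelial and stromal cells, exposed to drug combinations. Top concentration at or near clinical Cmax (else 10 microM), diluted in half-log increments.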

[1] = second compound 0.0316 µM, first compound 0.0316 µM
[2] = second compound 0.0316 µM, first compound 0.1 µM
[3] = second compound 0.0316 µM, first compound 0.316 µM
[4] = second compound 0.0316 µM, first compound 1 µM
[5] = second compound 0.0316 µM, first compound 3.16 µM
[6] = second compound 0.0316 µM, first compound 10 µM
[7] = second compound 0.1 µM, first compound 0.0316 µM
[8] = second compound 0.1 µM, first compound 0.1 µM
[9] = second compound 0.1 µM, first compound 0.316 µM
[10] = second compound 0.1 µM, first compound 1 µM
[11] = second compound 0.1 µM, first compound 3.16 µM
[12] = second compound 0.1 µM, first compound 10 µM
[13] = second compound 0.316 µM, first compound 0.0316 µM
[14] = second compound 0.316 µM, first compound 0.1 µM
[15] = second compound 0.316 µM, first compound 0.316 µM
[16] = second compound 0.316 µM, first compound 1 µM
[17] = second compound 0.316 µM, first compound 3.16 µM
[18] = second compound 0.316 µM, first compound 10 µM
[19] = second compound 1 µM, first compound 0.0316 µM
[20] = second compound 1 µM, first compound 0.1 µM
[21] = second compound 1 µM, first compound 0.316 µM
[22] = second compound 1 µM, first compound 1 µM
[23] = second compound 1 µM, first compound 3.16 µM
[24] = second compound 1 µM, first compound 10 µM
[25] = second compound 3.16 µM, first compound 0.0316 µM
[26] = second compound 3.16 µM, first compound 0.1 µM
[27] = second compound 3.16 µM, first compound 0.316 µM
[28] = second compound 3.16 µM, first compound 1 µM
[29] = second compound 3.16 µM, first compound 3.16 µM
[30] = second compound 3.16 µM, first compound 10 µM
[31] = second compound 10 µM, first compound 0.0316 µM
[32] = second compound 10 µM, first compound 0.1 µM
[33] = second compound 10 µM, first compound 0.316 µM
[34] = second compound 10 µM, first compound 1 µM
[35] = second compound 10 µM, first compound 3.16 µM
[36] = second compound 10 µM, first compound 10 µM
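Throughout, for viability, T/C: 100% = DMSO vehicle control viability.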

COc1ccc([C@@H](O)c2cc(-c3ncnc4cc(N5CCOCC5)ccc34)c(F)cc2Cl)nn1 + CN(C)c1ccc(Nc2c3ccc(NC(=O)CCN4CCCC4)cc3nc3cc(NC(=O)CCN4CCCC4)ccc23)cc1
< 31.6 nM: IC50 (second compound 1 µM) | IC50 (second compound 3.16 µM) | IC50 (second compound 10 µM)
active: viability, T/C [6] 1.57% | viability, T/C [12] 1.52% | viability, T/C [17] 4.99% | viability, T/C [18] 0.9% | viability, T/C [22] 4.62% | viability, T/C [23] 1.37% | viability, T/C [24] 0.46% | viability, T/C [25] 1.64% | viability, T/C [26] 2.1% | viability, T/C [27] 1.49% | viability, T/C [28] 0.45% | viability, T/C [29] 0.38% | viability, T/C [30] 0.23% | viability, T/C [31] 0.4% | viability, T/C [32] 0.57% | viability, T/C [33] 0.32% | viability, T/C [34] 0.19% | viability, T/C [35] 0.14% | viability, T/C [36] 0.38%
544 nM: IC50 (second compound 0.0316 µM)
335 nM: IC50 (second compound 0.316 µM)
570 nM: IC50 (second compound 0.1 µM)
inactive: viability, T/C [1] 97.2% | viability, T/C [2] 85.8% | viability, T/C [3] 62.5% | viability, T/C [4] 37.6% | viability, T/C [5] 7.36% | viability, T/C [7] 94.5% | viability, T/C [8] 87% | viability, T/C [9] 64.2% | viability, T/C [10] 37.5% | viability, T/C [11] 7.17% | viability, T/C [13] 79.3% | viability, T/C [14] 72.5% | viability, T/C [15] 52.2% | viability, T/C [16] 18.2% | viability, T/C [19] 27.1% | viability, T/C [20] 17.4% | viability, T/C [21] 18.6%

C=CCn1c(=O)c2cnc(Nc3ccc(N4CCN(C)CC4)cc3)nc2n1-c1cccc(C(C)(C)O)n1 + Cc1cnc(CNC(=O)c2c(=O)c3ccc(N4CCCN(C)CC4)nc3n3c2sc2ccccc23)cn1
652 nM: IC50 (second compound 0.0316 µM)
496 nM: IC50 (second compound 1 µM)
428 nM: IC50 (second compound 0.316 µM)
358 nM: IC50 (second compound 10 µM)
541 nM: IC50 (second compound 0.1 µM)
inactive: viability, T/C [1] 106% | viability, T/C [2] 84.2% | viability, T/C [3] 74.9% | viability, T/C [4] 36.3% | viability, T/C [5] 19.9% | viability, T/C [6] 23.3% | viability, T/C [7] 72.9% | viability, T/C [8] 76% | viability, T/C [9] 60.6% | viability, T/C [10] 37.3% | viability, T/C [11] 22.6% | viability, T/C [12] 22.2% | viability, T/C [13] 72.1% | viability, T/C [14] 68.6% | viability, T/C [15] 55.7% | viability, T/C [16] 34.3% | viability, T/C [17] 26.1% | viability, T/C [18] 24.8% | viability, T/C [19] 66.5% | viability, T/C [20] 60.4% | viability, T/C [21] 56.6% | viability, T/C [22] 41.3% | viability, T/C [23] 31.1% | viability, T/C [24] 28.1% | viability, T/C [25] 66.1% | viability, T/C [26] 58% | viability, T/C [27] 58.5% | viability, T/C [28] 42.3% | viability, T/C [29] 36.6% | viability, T/C [30] 35.3% | viability, T/C [31] 57.4% | viability, T/C [32] 54.6% | viability, T/C [33] 50.2% | viability, T/C [34] 48.7% | viability, T/C [35] 36.4% | viability, T/C [36] 36%
566 nM: IC50 (second compound 3.16 µM)

C=CCn1c(=O)c2cnc(Nc3ccc(N4CCN(C)CC4)cc3)nc2n1-c1cccc(C(C)(C)O)n1 + CN(C)c1ccc(Nc2c3ccc(NC(=O)CCN4CCCC4)cc3nc3cc(NC(=O)CCN4CCCC4)ccc23)cc1
783 nM: IC50 (second compound 0.0316 µM)
inactive: viability, T/C [1] 105% | viability, T/C [2] 86.5% | viability, T/C [3] 87.6% | viability, T/C [4] 40% | viability, T/C [5] 21.3% | viability, T/C [6] 23.7% | viability, T/C [7] 106% | viability, T/C [8] 99% | viability, T/C [9] 66.8% | viability, T/C [10] 45.5% | viability, T/C [11] 24.1% | viability, T/C [12] 27.5% | viability, T/C [13] 39.8% | viability, T/C [14] 38.4% | viability, T/C [15] 36.4% | viability, T/C [16] 15.2% | viability, T/C [17] 16.5%
707 nM: IC50 (second compound 0.1 µM)
active: viability, T/C [18] 9.97% | viability, T/C [19] 3.15% | viability, T/C [20] 2.55% | viability, T/C [21] 3.78% | viability, T/C [22] 2.12% | viability, T/C [23] 1.52% | viability, T/C [24] 1.18% | viability, T/C [25] 0.41% | viability, T/C [26] 0.2% | viability, T/C [27] 0.36% | viability, T/C [28] 0.19% | viability, T/C [29] 0.51% | viability, T/C [30] 0.13% | viability, T/C [31] 0.13% | viability, T/C [32] 0.12% | viability, T/C [33] 0.54% | viability, T/C [34] 0.29% | viability, T/C [35] 0.16% | viability, T/C [36] 0.14%
< 31.6 nM: IC50 (second compound 0.316 µM) | IC50 (second compound 1 µM) | IC50 (second compound 3.16 µM) | IC50 (second compound 10 µM)
